SMILES strings stand for the structures.

In general, Ki refers to the equilibrium dissociation constant of an inhibitor or competing ligand from its target.

Sequence of human factor Xa (P00742 235-488 limits assumed): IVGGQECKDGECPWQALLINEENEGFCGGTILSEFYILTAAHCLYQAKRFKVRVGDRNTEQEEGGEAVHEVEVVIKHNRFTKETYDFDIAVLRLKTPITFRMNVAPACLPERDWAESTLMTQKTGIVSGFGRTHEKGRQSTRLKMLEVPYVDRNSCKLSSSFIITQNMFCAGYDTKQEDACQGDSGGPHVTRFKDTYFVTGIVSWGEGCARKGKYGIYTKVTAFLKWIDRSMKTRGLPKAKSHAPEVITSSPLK
Sequence of human factor Xa (P00742 41-179 partner limits assumed): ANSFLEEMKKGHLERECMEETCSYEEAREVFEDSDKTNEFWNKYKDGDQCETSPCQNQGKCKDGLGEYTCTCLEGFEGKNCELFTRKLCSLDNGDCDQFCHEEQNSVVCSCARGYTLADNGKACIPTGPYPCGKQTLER

This assay addresses human factor Xa (Homo sapiens, UniProt P00742). In words: Factor Xa assay (chromogenic, substrate S-2765).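 Also: purified enzyme preincubated with inhibitor for 10 min before substrate addition, final reaction volume 100 µl.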 In kind it is biochemical. Particulars: read-out: Ki(FXa).
On to `CCOC(=O)OC(C)OC(=O)c1cccc2c1cc(C(=O)NC1CCN(C(C)C)CC1)n2Cc1cc(-c2ccc(Cl)s2)on1` (stereo not shown) [Example 269, 1-[5-(5-Chloro-thiophen-2-yl)-isoxazol-3-ylmethyl]-2-(1-isopropyl-piperidin-4-ylcarbamoyl)-1H-indole-4-carboxylic acid 1-ethoxycarbonyloxy-ethyl ester], for which the Ki came out at 0.007 µM.

For `CC(C)N1CCC(NC(=O)c2cc3c(C(=O)OCOC(=O)C(C)(C)C)cccc3n2Cc2cc(-c3ccc(Cl)s3)on2)CC1` [Example 270, 1-[5-(5-Chloro-thiophen-2-yl)-isoxazol-3-ylmethyl]-2-(1-isopropyl-piperidin-4-ylcarbamoyl)-1H-indole-4-carboxylic acid 2,2-dimethyl-propionyloxymethyl ester], the Ki came to 0.013 µM.

As for `CC(OC(=O)c1ccc2c(c1)cc(C(=O)NC1CCN(C(C)C)CC1)n2Cc1cc(-c2ccc(Cl)s2)on1)OC(=O)C(C)(C)C` (stereo not shown) [Example 271, 1-[5-(5-Chloro-thiophen-2-yl)-isoxazol-3-ylmethyl]-2-(1-isopropyl-piperidin-4-ylcarbamoyl)-1H-indole-5-carboxylic acid 1-(2,2-dimethyl-propionyloxy)-ethyl ester], the inhibition constant (Ki) worked out at 0.092 µM.

As to `CC(OC(=O)c1cccc2c1cc(C(=O)NC1CCN(C(C)C)CC1)n2Cc1cc(-c2ccc(Cl)s2)on1)OC(=O)C(C)(C)C` (stereo not shown) [Example 272, 1-[5-(5-Chloro-thiophen-2-yl)-isoxazol-3-ylmethyl]-2-(1-isopropyl-piperidin-4-ylcarbamoyl)-1H-indole-4-carboxylic acid 1-(2,2-dimethyl-propionyloxy)-ethyl ester], the inhibition constant Ki was determined as 0.017 µM.
